# According to patent publication US10577363B2, “Substituted piperidine compounds” (EPIZYME, INC., priority 2014, dated 2020):
# Where a name gives a salt, the structure may show the parent alone.
# What was measured:
# SMYD3 [1] = biological target: T1, SMYD3 (Homo sapiens (Human), UniProt Q9H7B4); assay: SMYD3 cell assay (Trimethyl-MEKK2 In-Cell Western in 293T/17 cells); format: cell-based
# Description: Trimethyl-MEKK2-in-Cell Western Assay
# MEM/Glutamax medium, Optimem Reduced Serum medium, penicillin-streptomycin, 0.05% trypsin and 1×D-PBS were purchased from Life Technologies, Grand Island, N.Y., USA. PBS-10× was purchased from Ambion, Life Technologies, Grand Island, N.Y., USA. PBS with Tween 20 (PBST (10×)) was purchased from KPL, Gaithersburg, Md., USA. Tet System FBS-approved FBS US Source was purchased from Clontech, Mountain View, Calif., USA. Odyssey blocking buffer, 800CW goat anti-rabbit IgG (H+L) antibody, 680CW Goat anti-mouse IgG (H+L) and Licor Odyssey infrared scanner were purchased from Licor Biosciences, Lincoln, Nebr., USA. Tri-methyl-Lysine [A260]-MEKK2 antibody, MEKK2 and SMYD3 plasmids were made at Epizyme. Anti-flag monoclonal mouse antibody was purchased from Sigma, St. Louis, Mo., USA. Methanol was purchased from VWR, Franklin, Mass., USA. 10% Tween 20 was purchased from KPL, Inc., Gaithersburg, Md., USA. Fugene was purchased from Promega, Madison, Wis., USA. The Biotek ELx405 was purchased from BioTek, Winooski, Vt., USA. The multidrop combi was purchased from Thermo Scientific, Waltham, Mass., USA.
# Cell Treatment, in Cell Western (ICW) for Detection of Trimethyl-Lysine-MEKK2 and MEKK2.
# Plasmids were prepared for delivery to cells by first mixing 1350 μL Opti-MEM with Fugene (81 μL) in a sterile Eppendorf and incubated for five minutes at room temperature (RT). […] Entire volume of Opti-MEM/Fugene mixture was then added to a microfuge tube containing DNA plasmid, mixed and then incubated×15 minutes at RT. […] Medium was then removed, and cells were washed once with PBS in the flask. Trypsin 0.05% (3 mL) was added and cells incubated for three minutes. Room temperature MEM+10% Tet system FBS was added and cells were mixed gently, and counted using the Vi-cell. Cells were seeded at 100,000 cells/mL in 50 μL MEM/10% Tet FBS/Pen/Strep to a 384 well black/clear poly-D-lysine coated plate containing test agent diluted in DMSO. The final top concentration of test compound was 40 μM. […] Plates were incubated×30 minutes at RT in low-airflow area, followed by incubation at 37° C. under 5% CO2 for 24 hours. Medium was aspirated from all wells of assay plates prior to fixation and permeabilization with ice cold (−20° C.) methanol (90 μL/well) for ten minutes. Plates were rinsed with PBS three times on BioTek ELx405. PBS was removed with a final aspiration, and Odyssey blocking buffer (50 μL/well) was added to each well and incubated for one hour at RT. Primary antibody solution was prepared (anti-trimethyl-MEKK2 at 1:600 dilution plus mouse anti-flag antibody at 1:10,000 dilution in diluent (Odyssey Blocking buffer+0.1% Tween 20)) and 20 μL per well was dispensed using the Multidrop Combi. Assay plates were then sealed with foil, and incubated overnight at 4° C. Plates were washed five times with PBS-Tween (1×) on Biotek ELx405 and blotted on paper towel to remove excess reagent.
# First, the ratio for each well was determined by:
# Each plate included fourteen control wells of DMSO only treatment (Minimum Inhibition) as well as fourteen control wells for maximum inhibition (Background). The average of the ratio values for each control type was calculated and used to determine the percent inhibition for each test well in the plate. Reference compound was serially diluted two-fold in DMSO for a total of nine test concentrations, beginning at 40 μM.
# Percent inhibition was calculated (below).
# Non-linear regression curves were generated to calculate the IC50 and dose-response relationship using triplicate wells per concentration of compound.
# SMYD3 [2] = biological target: T1, SMYD3; assay: SMYD3 biochemical assay (SPA, 3H-SAM methylation of MEKK2 protein substrate)
# How it was run: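 Full-length native human SMYD3 (E. coli-expressed, tags removed) preincubated with compounds 30 min at room temperature, then reaction started with 3H-SAM and GST-tagged MEKK2 protein in 25 mM Tris-Cl pH 8.0, 1 mM TCEP, 0.005% BSG, 0.005% Tween 20. Quenched with unlabelled SAM (100 uM final); 3H-MEKK2 counted by SPA.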
# [3] = 293T/17 cells, read-out: SMYD3 Cell IC50 (μM)*
# [4] = read-out: SMYD3 Biochem IC50 (μM)*
# [5] = read-out: SMYD3 Cell IC50 (μM)*
# [6] = Table 1A, IC50 values are an average of n = 1 to n = 50, read-out: SMYD3 Cell IC50
# [7] = Table 2A, read-out: SMYD3 Cell IC50
# [8] = Table 2A, read-out: SMYD3 Biochem IC50
# T1 sequence (Q9H7B4 whole entry): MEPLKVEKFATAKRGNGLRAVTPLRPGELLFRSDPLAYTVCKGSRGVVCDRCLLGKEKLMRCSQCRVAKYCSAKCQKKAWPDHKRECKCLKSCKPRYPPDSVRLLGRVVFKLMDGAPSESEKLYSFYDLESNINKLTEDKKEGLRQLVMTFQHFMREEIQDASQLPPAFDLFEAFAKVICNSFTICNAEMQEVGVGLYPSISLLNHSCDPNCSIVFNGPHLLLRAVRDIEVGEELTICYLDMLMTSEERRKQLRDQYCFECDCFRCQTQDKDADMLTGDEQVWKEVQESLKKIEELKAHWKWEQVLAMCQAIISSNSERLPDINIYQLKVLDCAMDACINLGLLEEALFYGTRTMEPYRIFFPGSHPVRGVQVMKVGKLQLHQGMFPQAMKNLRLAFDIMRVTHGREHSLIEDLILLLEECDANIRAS
Structure (SMILES),IC50 (SMYD3 [1]; [3]),IC50 (SMYD3 [2]; [4]),also measured
"C[C@H]1C[C@@H](NC(=O)c2cc(C3CC3)on2)CCN1S(=O)(=O)CC1CCNCC1 (single isomer, unassigned) [Cpd. No. 417]",0.0508 µM,0.00307 µM,–
"C[C@@H]1C[C@H](NC(=O)c2cc(C3CC3)on2)CCN1S(=O)(=O)CC1CCNCC1 (single isomer, unassigned) [Cpd. No. 418]",0.197 µM,0.0172 µM,–
"O=C(N[C@@H]1C[C@H]2CC[C@@H](C1)N2S(=O)(=O)CCN1CCCC1)c1cc(C2CC2)on1 (single isomer, unassigned) [Cpd. No. 436]",0.285 µM,0.0613 µM,–
"CC(C)c1cc(C[C@@H](CN)C(=O)N2CCC(NC(=O)c3cc(C4CC4)on3)CC2)ccc1O [Cpd. No. 121, N-[1-[(2S)-3-amino-2-[[4-hydroxy-3-(propan-2-yl)phenyl]methyl]propanoyl]piperidin-4-yl]-5-cyclopropyl-1,2-oxazole-3-carboxamide hydrochloride salt]",–,0.00957 µM,IC50 (SMYD3 [1]; [5]): 0.68 µM
"NCCCS(=O)(=O)N1C2CCCC1CC(NC(=O)c1cc(C3CC3)on1)C2 (centres unmarked) [Cpd. No. 181, N-[9-[(3-aminopropane)sulfonyl]-9-azabicyclo[3.3.1]nonan-3-yl]-5-cyclopropyl-1,2-oxazole-3-carboxamide hydrochloride salt]",–,0.0927 µM,IC50 (SMYD3 [1]; [5]): 0.566 µM
"C[C@H]1C[C@@H](NC(=O)c2cc(C3CC3)on2)CCN1S(=O)(=O)N1CCN(C)CC1 [Cpd. No. 279, 5-cyclopropyl-N-[(2S,4S)-2-methyl-1-(4-methylpiperazine-1-sulfonyl)piperidin-4-yl]-1,2-oxazole-3-carboxamide]",0.266 µM,0.0815 µM,–
"O=C(N[C@H]1CCN(C(=O)CC2CCNCC2)[C@@H](Cc2ccccc2)C1)c1cc(C2CC2)on1 [Cpd. No. 348, N-((2S,4S)-2-benzyl-1-(2-(piperidin-4-yl)acetyl)piperidin-4-yl)-5-cyclopropylisoxazole-3-carboxamide hydrochloride]",0.838 µM,0.0225 µM,–
"C[C@H]1CN(S(=O)(=O)CCCN)CC[C@H]1NC(=O)c1cc(C2CC2)on1 [Cpd. No. 386, N-((3S,4R)-1-(3-aminopropylsulfonyl)-3-methylpiperidin-4-yl)-5-cyclopropylisoxazole-3-carboxamide]",–,0.0282 µM,IC50 (SMYD3 [1]): 0.34 µM
"C[C@@H]1CN(C(=O)[C@H]2CC[C@H](N)CC2)[C@H](C)C[C@@H]1NC(=O)c1cc(C2CC2)on1 [Cpd. No. 420, N-((2R,4S,5R)-1-((1r,4R)-4-aminocyclohexanecarbonyl)-2,5-dimethylpiperidin-4-yl)-5-cyclopropylisoxazole-3-carboxamide]",0.205 µM,0.0113 µM,–
"C[C@H]1C[C@@H](NC(=O)c2cc(C3CC3)on2)CCN1S(=O)(=O)c1ccc(NCCN2CCOCC2)nc1 [Cpd. No. 458, 5-cyclopropyl-N-((2S,4S)-2-methyl-1-(6-(2-morpholinoethylamino)pyridin-3-ylsulfonyl)piperidin-4-yl)isoxazole-3-carboxamide dihydrochloride]",0.581 µM,0.132 µM,–
"NCCCS(=O)(=O)N1[C@@H]2CC[C@H]1C[C@@H](NC(=O)c1cc(C3CC3)on1)C2 [Cpd. No. 485, N-((1S,3r,5R)-8-(3-aminopropylsulfonyl)-8-aza-bicyclo[3.2.1]octan-3-yl)-5-cyclopropylisoxazole-3-carboxamide]",0.129 µM,0.00507 µM,–
"C[C@H]1C[C@@H](NC(=O)c2cc(C3CC3)on2)CCN1S(=O)(=O)CCCNCc1ccccc1 [Cpd. No. 500, N-((2S,4S)-1-(3-(benzylamino)propylsulfonyl)-2-methylpiperidin-4-yl)-5-cyclopropylisoxazole-3-carboxamide]",–,–,"IC50 (SMYD3 [1]; [6]): 0.106 µM; IC50 (SMYD3 [2]; Table 1A, IC50 values are an average of n = 1 to n = 50, read-out: SMYD3 Biochem IC50): 0.00813 µM"
"O=C(N[C@H]1C[C@H]2CC[C@@H](C1)N2S(=O)(=O)CC1CCN(CCCC(F)(F)F)CC1)c1cc(C2CC2)on1 [Cpd. No. 528, 5-cyclopropyl-N-[(1R,3r,5S)-8-([[1-(4,4,4-trifluorobutyl)piperidin-4-yl]methane]sulfonyl)-8-azabicyclo[3.2.1]octan-3-yl]-1,2-oxazole-3-carboxamide]",–,–,IC50 (SMYD3 [1]; [7]): 0.0231 µM; IC50 (SMYD3 [2]; [8]): 0.0006 µM
"C[C@H]1C[C@@H](NC(=O)c2cc(C3CC3)on2)CCN1S(=O)(=O)N1CCC(N)CC1 [Cpd. No. 529, N-((2S,4S)-1-(4-aminopiperidin-1-ylsulfonyl)-2-methylpiperidin-4-yl)-5-cyclopropylisoxazole-3-carboxamide trifluoroacetic acid]",–,–,IC50 (SMYD3 [1]; [7]): 0.0152 µM; IC50 (SMYD3 [2]; [8]): 0.0008 µM
"NC1CCN(S(=O)(=O)N2[C@@H]3CC[C@H]2C[C@@H](NC(=O)c2cc(C4CC4)on2)C3)CC1 [Cpd. No. 532, N-((1R,3r,5S)-8-(4-aminopiperidin-1-ylsulfonyl)-8-aza-bicyclo[3.2.1]octan-3-yl)-5-cyclopropylisoxazole-3-carboxamide hydrochloride]",–,–,IC50 (SMYD3 [1]; [7]): 0.0214 µM; IC50 (SMYD3 [2]; [8]): 0.0009 µM
"C[C@H]1C[C@@H](NC(=O)c2cc(C3CC3)on2)CCN1S(=O)(=O)c1ccc(C(C)(C)N)cc1 [Cpd. No. 541, N-((2S,4S)-1-(4-(2-aminopropan-2-yl)phenylsulfonyl)-2-methylpiperidin-4-yl)-5-cyclopropylisoxazole-3-carboxamide]",–,–,IC50 (SMYD3 [1]; [7]): 0.0259 µM; IC50 (SMYD3 [2]; [8]): 0.0014 µM
"O=C(N[C@H]1C[C@H]2CC[C@@H](C1)N2S(=O)(=O)CC1CCNCC1)c1cc(C2CC2)on1 [Cpd. No. 543, 5-cyclopropyl-N-((1R,3r,5S)-8-(piperidin-4-ylmethylsulfonyl)-8-aza-bicyclo [3.2.1]octan-3-yl) isoxazole-3-carboxamide]",–,–,IC50 (SMYD3 [1]; [7]): 0.0445 µM; IC50 (SMYD3 [2]; [8]): 0.0018 µM
"C[C@@H]1C[C@H](NC(=O)c2cc(C3CC3)on2)CCN1C(=O)c1ccc(C2(N)CCC2)cc1 [compound 479, N-((2R,4R)-1-(4-(1-aminocyclobutyl)benzoyl)-2-methylpiperidin-4-yl)-5-cyclopropylisoxazole-3-carboxamide]",2.03 µM,–,–
"O=C(N[C@@H]1C[C@H]2CC[C@@H](C1)N2S(=O)(=O)c1ccc2[nH]c(=O)[nH]c2c1)c1cc(C2CC2)on1 [compound 494, 5-cyclopropyl-N-((1R,3s,5S)-8-((2-oxo-2,3-dihydro-1H-benzo[d]imidazol-5-yl)sulfonyl)-8-azabicyclo[3.2.1]octan-3-yl)isoxazole-3-carboxamide]",–,–,IC50 (SMYD3 [1]; [6]): 5.18 µM
"CC(C)[C@H]1C[C@@H](NC(=O)c2cc(C3CC3)on2)CCN1S(=O)(=O)CCCN [compound 501, N-((2R,4S)-1-((3-aminopropyl)sulfonyl)-2-isopropylpiperidin-4-yl)-5-cyclopropylisoxazole-3-carboxamide]",–,–,IC50 (SMYD3 [1]; [6]): 4.49 µM
"C[C@@H]1CN(S(=O)(=O)CCCNCc2ccccc2)[C@H](C)C[C@@H]1NC(=O)c1cc(C2CC2)on1 [compound 681, N-((2R,4S,5R)-1-((3-(benzylamino)propyl)sulfonyl)-2,5-dimethylpiperidin-4-yl)-5-cyclopropylisoxazole-3-carboxamide]",–,–,"IC50 (SMYD3 [1]; average of n = 1 to n = 50, read-out: SMYD3 Cell IC50): 0.93 µM"
